Source: US11008555B2 (The Regents of the University of California, priority 2015, dated 2021)

System: chromosomal GFP
Test: CRISPRi GFP repression assay in E. coli
Format: cell-based, Escherichia coli MG1655
Settings: ligand dose response on arC9:231, SOB media, normalized to vector control
Excerpt: Escherichia coli MG1655, which have chromosomally integrated constitutive GFP and RFP expression, were used for in vivo screening, fluorescence measurements, and transformation assays. Cell transformation, plasmid maintenance, and verification of transformation were done as previously described using AmpR and CmR as selectable markers. EZ-rich defined growth medium (EZ-RDM, Teknoka) was used for in vivo fluorescence assays unless otherwise noted. Super optimal broth (S.O.B) medium was used for library outgrowth and screening. The arC9 ligands used (4-hydroxytamoxifen (4-HT), nafoxidine, beta-estradiol, and diethylstilbestrol) were all ordered from Sigma and resuspended in dimethyl sulfoxide (DMSO).
For individual PDZ-construct testing, colonies were cultured from plates, PDZ-dCas9 plasmid DNA recovered, separated from the RFP guide plasmid (pgRNA-bacteria Addgene ID: 44251) via restriction digestion with BsaI and co-transformed with a guide plasmid to repress chromosomal GFP. GFP repression for each construct was then tested in triplicate in a 96-well microplate reader (Tecan M1000) at 37° C. PDZ clones were grown with appropriate antibiotics, 0.2 nM aTc, dCas9, and inducer. OD600 nm absorbance was measured for each well. GFP signal was measured, normalized for OD600 nm and compared when the cultures were approaching saturation (80% of the maximum OD600 nm) The arC9 construct was treated and assayed in the same fashion as above with induction using […]. Fold changes for the effect of different ligands were calculated by normalizing the GFP/OD600 of the arC9 construct to that of a vector control and dividing the fluorescent values without ligand by the fluorescent values with ligand treatment. For single cell analysis of arC9, cells were grown for ˜6 hours with antibiotics and inducer, washed with PBS, and assayed for GFP fluorescence using a Sony SH800 cell sorter.

Compound	effect of ligand on arC9:231 CRISPRi-based GFP repression
4-hydroxytamoxifen [4-HT]	increased
C[C@]12CC[C@@H]3c4ccc(O)cc4CC[C@H]3[C@@H]1CC[C@@H]2O [beta-estradiol]	increased only with ligands that encourage the ER-LBD to enter an antagonist conformation
CC/C(=C(/CC)c1ccc(O)cc1)c1ccc(O)cc1 [diethylstilbestrol]	increased only with ligands that encourage the ER-LBD to enter an antagonist conformation
COc1ccc2c(c1)CCC(c1ccccc1)=C2c1ccc(OCCN2CCCC2)cc1 [nafoxidine]	increased
